According to patent US6653298B2, “Composition” (Sterix Limited, priority 2000, dated 2003):
Each block holds one molecule with its values, some of them ahead of it.

Experiments:
tubulin = details: at high concentrations; cited from earlier work
endothelial cell = details: cited from earlier work
microtubule = details: at high concentrations; cited from earlier work
[1] = system: Meth A sarcoma, B16 melanoma or MDA-MB-435 estrogen receptor negative (ER−) breast cancer cells; details: subcutaneous injection of Meth A sarcoma, B16 melanoma or MDA-MB-435 cells; cited from earlier work
angiogenesis = details: cited from earlier work
E1-STS [2] = molecular target: T1, E1-STS (Homo sapiens, UniProt P08842); details: cited from earlier work
T1 sequence (P08842 22-583): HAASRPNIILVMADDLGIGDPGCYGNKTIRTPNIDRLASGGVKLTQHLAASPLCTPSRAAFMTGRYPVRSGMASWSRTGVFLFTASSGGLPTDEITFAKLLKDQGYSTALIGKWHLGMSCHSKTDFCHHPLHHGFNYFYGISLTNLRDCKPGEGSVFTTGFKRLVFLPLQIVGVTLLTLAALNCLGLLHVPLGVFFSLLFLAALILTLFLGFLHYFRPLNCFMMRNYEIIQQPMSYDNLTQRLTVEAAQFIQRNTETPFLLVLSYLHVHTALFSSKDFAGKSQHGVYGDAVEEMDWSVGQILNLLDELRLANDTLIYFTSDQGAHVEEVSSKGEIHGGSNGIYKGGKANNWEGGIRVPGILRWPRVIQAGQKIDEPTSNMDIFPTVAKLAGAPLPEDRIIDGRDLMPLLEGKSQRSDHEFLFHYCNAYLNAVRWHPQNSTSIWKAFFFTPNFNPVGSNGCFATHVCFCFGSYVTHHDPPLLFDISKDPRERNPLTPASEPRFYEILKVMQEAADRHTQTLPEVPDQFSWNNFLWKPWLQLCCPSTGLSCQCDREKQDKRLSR

uterine growth = details: cited from earlier work
[3] = referring to antigonadotropic properties; cited from earlier work
[4] = single oral dose 50 μg, FIG. 4; cited from earlier work
E1-STS [5] = molecular target: T1, E1-STS; set-up: endogenous in cells; host or cells: MCF-7; dose or concentration left out as unconfirmed; details: intact MCF-7 cells; cited from earlier work
rat liver DHA-STS = molecular target: T2, rat liver DHA-STS (Rattus norvegicus, UniProt P15589); details: in vivo, administered either orally or subcutaneously; cited from earlier work
T2 construct: samples of liver tissue were obtained and oestrone sulphatase activity assayed; from tissue; host or cells: rat liver (after in vivo dosing)
T2 sequence (P15589 20-577): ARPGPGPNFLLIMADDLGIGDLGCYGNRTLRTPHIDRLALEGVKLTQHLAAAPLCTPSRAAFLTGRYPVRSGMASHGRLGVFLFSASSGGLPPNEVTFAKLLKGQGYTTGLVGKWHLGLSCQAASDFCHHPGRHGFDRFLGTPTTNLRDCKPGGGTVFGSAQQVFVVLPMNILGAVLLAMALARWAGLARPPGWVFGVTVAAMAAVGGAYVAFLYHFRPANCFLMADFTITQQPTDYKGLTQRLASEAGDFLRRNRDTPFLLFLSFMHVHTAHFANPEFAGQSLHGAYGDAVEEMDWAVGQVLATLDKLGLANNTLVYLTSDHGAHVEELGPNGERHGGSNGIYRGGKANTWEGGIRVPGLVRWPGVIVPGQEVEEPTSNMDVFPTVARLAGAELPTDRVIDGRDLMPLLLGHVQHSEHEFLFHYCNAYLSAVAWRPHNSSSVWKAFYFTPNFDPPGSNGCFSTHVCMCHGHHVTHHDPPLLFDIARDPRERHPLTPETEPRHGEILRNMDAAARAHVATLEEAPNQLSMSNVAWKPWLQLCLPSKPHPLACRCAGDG

[6] = rats; cited from earlier work
[7] = molecular target: T3, dehydroepiandrosterone sulphatase (DHA-STS) (Homo sapiens, UniProt P08842); details: cited from earlier work
T3 sequence (P08842 22-583): T1 sequence (P08842 22-583)

[8] = Clinical pharmacokinetics after oral administration in postmenopausal women; assay type: in vivo, human
Protocol: Studies in the human were performed with oral administration of the compound in postmenopausal women. Several doses at single and multiple administration were evaluated. […] studies were performed with solutions in oily vehicles for parenteral administration. Oral treatment was performed with suspensions of cristalline J995 in aquaeous vehicle. Clinical studies were performed with amorphous drug substance galenically formulated with a mixture of conventional ingredients as capsules or tablets.

estrogen receptor [9] = assay: In vitro estrogen receptor binding / displacement of radiolabelled oestradiol
Protocol: (§1) Oestradiol Sulfamate (J995) was investigated with respect to its hormonal properties in vitro and in vivo. In vitro studies included the evaluation of its specific binding to oestrogen receptors using cytosolic preparations of uterine tissue of rats and mice and MCF-7 tumor cells. In vivo studies were performed on several animal species including intact and ovariectomised rats and cynomolgus monkeys. These species served for detailed pharmacodynamic and pharmacokinetic studies at parenteral and oral administration of the compound.

estrogen receptor [10] = molecular target: T4, estrogen receptor (Mus musculus, UniProt P19785); assay: Specific binding of radiolabelled J995 to estrogen receptor of mice
T4 construct: using cytosolic preparations of uterine tissue of rats and mice and MCF-7 tumor cells; from tissue; host or cells: mouse uterine cytosol
T4 sequence (P19785 1-599): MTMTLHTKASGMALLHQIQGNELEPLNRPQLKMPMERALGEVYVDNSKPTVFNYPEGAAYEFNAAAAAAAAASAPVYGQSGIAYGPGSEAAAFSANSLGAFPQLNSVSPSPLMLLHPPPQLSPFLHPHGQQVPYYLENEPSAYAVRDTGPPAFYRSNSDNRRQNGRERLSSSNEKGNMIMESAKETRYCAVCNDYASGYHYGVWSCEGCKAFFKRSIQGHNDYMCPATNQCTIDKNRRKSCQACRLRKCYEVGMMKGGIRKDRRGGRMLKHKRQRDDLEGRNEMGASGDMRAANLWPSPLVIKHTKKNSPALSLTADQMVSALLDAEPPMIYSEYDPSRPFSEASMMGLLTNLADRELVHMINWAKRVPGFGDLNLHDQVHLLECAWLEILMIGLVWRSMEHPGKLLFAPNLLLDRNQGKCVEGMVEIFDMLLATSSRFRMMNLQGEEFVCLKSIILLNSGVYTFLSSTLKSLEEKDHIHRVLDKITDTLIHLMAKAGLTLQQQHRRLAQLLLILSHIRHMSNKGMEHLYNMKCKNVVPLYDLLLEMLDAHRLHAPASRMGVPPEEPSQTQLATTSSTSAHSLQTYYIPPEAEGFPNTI
Protocol: as §1

[11] = Distribution of compound in blood (erythrocyte binding)
estrogen receptor [12] = molecular target: T5, estrogen receptor (Homo sapiens, UniProt P03372); assay: Specific binding of radiolabelled J995 to human estrogen receptor
T5 construct: using cytosolic preparations of uterine tissue of rats and mice and MCF-7 tumor cells; endogenous in cells; host or cells: MCF-7 cytosol
T5 sequence (P03372 1-595): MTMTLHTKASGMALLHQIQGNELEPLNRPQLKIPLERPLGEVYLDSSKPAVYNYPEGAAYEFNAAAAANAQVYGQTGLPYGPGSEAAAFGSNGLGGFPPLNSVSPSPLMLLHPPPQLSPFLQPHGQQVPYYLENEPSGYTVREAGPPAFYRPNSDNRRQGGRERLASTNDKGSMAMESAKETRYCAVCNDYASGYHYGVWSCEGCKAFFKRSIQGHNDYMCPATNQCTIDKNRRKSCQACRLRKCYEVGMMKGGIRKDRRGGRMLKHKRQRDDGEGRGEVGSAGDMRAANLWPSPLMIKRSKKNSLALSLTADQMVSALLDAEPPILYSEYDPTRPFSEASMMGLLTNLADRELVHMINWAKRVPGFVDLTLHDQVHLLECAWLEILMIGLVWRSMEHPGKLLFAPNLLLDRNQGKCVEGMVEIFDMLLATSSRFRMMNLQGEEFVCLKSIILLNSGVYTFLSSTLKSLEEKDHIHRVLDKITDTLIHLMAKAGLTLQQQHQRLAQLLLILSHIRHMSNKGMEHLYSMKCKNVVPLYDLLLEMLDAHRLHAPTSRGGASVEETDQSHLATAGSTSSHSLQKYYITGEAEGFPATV
Protocol: as §1

estrogen receptor [13] = molecular target: T6, estrogen receptor (Rattus norvegicus, UniProt P06211); assay: Specific binding of radiolabelled J995 to estrogen receptor of rats
T6 construct: using cytosolic preparations of uterine tissue of rats and mice and MCF-7 tumor cells; from tissue; host or cells: rat uterine cytosol
T6 sequence (P06211 1-600): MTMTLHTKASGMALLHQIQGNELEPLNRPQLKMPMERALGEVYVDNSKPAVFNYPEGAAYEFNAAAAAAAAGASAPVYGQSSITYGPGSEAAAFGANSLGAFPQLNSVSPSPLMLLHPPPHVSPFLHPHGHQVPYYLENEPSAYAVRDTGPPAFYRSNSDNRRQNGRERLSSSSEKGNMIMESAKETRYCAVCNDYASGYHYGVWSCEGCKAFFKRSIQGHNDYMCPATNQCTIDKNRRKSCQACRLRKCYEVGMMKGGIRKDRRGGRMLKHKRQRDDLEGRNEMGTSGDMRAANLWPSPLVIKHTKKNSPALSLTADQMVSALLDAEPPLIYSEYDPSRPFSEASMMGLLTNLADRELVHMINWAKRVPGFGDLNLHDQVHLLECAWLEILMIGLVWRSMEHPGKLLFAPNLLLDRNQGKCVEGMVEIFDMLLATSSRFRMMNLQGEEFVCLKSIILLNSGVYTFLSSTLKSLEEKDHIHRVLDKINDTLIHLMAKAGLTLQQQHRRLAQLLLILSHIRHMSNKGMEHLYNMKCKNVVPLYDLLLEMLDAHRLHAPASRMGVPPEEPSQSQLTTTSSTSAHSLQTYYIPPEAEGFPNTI
Protocol: as §1

[14] = single oral dose of 0.5 mg, FIG. 11
[15] = single oral dose of 0.5 mg, over 5 days, FIG. 11

Molecule: COc1cc2c(cc1O)CC[C@@H]1[C@@H]2CC[C@]2(C)[C@@H](O)CC[C@@H]12 [2-MeOE2, 2-methoxyoestradiol]
- inhibition of colchicine binding to tubulin (tubulin): weak inhibitor of colchicine binding to tubulin
- endothelial cell proliferation and migration (endothelial cell): inhibits endothelial cell proliferation and migration
- microtubule polymerisation (microtubule): can inhibit microtubule polymerisation
- growth of tumours in vivo [1]: inhibits the growth of tumours
- in vitro angiogenesis (angiogenesis): inhibits

Molecule: COc1cc2c(cc1OS(N)(=O)=O)CC[C@@H]1[C@@H]2CC[C@]2(C)C(=O)CC[C@@H]12 [2-methoxyoestrone-3-O-sulphamate, reference compound]
- potency as steroid sulphatase inhibitor relative to EMATE (E1-STS [2]): equipotent with EMATE
- oestrogenicity (uterine growth; rat, in vivo): devoid of oestrogenicity

Molecule: C#C[C@]1(O)CC[C@H]2[C@@H]3CCc4cc(O)ccc4[C@H]3CC[C@@]21C [EE, ethinyl estradiol]
- oestrogenicity in the liver relative to orally applied natural estrogens [3]: 4 to 18 times
- definition of blood levels (individual variation) [4]: does not lead to well defined blood levels

Molecule: CC12CCC3c4ccc(OS(N)(=O)=O)cc4CCC3C1CCC2=O (stereo not drawn) [EMATE, oestrone-3-O-sulphamate]
- inhibition of E1-STS activity (E1-STS [5]): more than 99%
- inhibition of rat liver DHA-STS activity (rat liver DHA-STS): 99%
- manner of inhibition of the E1-STS enzyme (E1-STS [2]): time- and concentration-dependent manner
- oral uterotrophic activity relative to estradiol (uterine growth; rats, oral): 100 times
- effect on memory [6]: memory enhancing effect
- inhibition of DHA-STS [7]: inhibits dehydroepiandrosterone sulphatase

- factor by which metabolite oestrone sulphate stays lower than under Oestradiol Valerate treatment ([8]; FIG. 5: single oral 2 mg J995 vs multiple doses 2 mg E2V): ≥ 10
- constancy of blood levels of oestrogens ([8]; FIGS. 5-10): very constant, long lasting blood levels
- oestrone sulphate levels in wash out phase ([8]; after 14 days of 100 μg per day, wash out phase over 144 hours, FIG. 9): almost constant oestrone sulphate levels
- orally administered compound reaching the erythrocyte pool ([8]; oral): ~100%
- prodrug appearing as oestrone and oestradiol in the circulation ([8]; oral, FIG. 11): more than 50%
- total ES amount in blood [8, 14]: ≈ 500 μg/5 L blood
- total ES concentration per blood volume [8, 14]: ~100 μg/L blood
- total ES erythrocyte conc. [8, 14]: Ca. 200 ng/mL erythrocytes
- E1S plasma level [8, 15]: 700 pg/mL
- E1 plasma level [8, 15]: 40 pg/mL
- Clearance of E1S calculated (amount) ([8]; single oral dose of 0.5 mg, 110 l×700 ng/l/day): 385 μg/5 days
- Clearance of E1 calculated (amount) ([8]; single oral dose of 0.5 mg, 1870 l×40 ng/l/day): 374 μg/5 days
- affinity to the estrogen receptor (estrogen receptor [9]; in vitro): no affinity to the estrogen receptor
- specific binding of radioactively labelled compound to estrogen receptor (estrogen receptor [10]): no specific binding
- amount circulating in the erythrocyte compartment [11]: 98-99%
- specific binding of radioactively labelled compound to estrogen receptor (estrogen receptor [12]): no specific binding
- specific binding of radioactively labelled compound to estrogen receptor (estrogen receptor [13]): no specific binding
Molecule: C[C@]12CC[C@@H]3c4ccc(OS(N)(=O)=O)cc4CC[C@H]3[C@@H]1CC[C@@H]2O [J995, oestradiol-3-sulphamate]
- oestradiol levels compared with Oestradiol Valerate at the same dose ([8]; FIGS. 6, 7): higher and much longer lasting oestradiol levels
- displacement of specifically bound radioactively labelled Oestradiol (estrogen receptor [9]; huge excess of J995): unable to displace specifically bound radioactively labelled Oestradiol

Molecule: oestrone-3-N-sulphamate
- manner of inhibition of the E1-STS enzyme (E1-STS [2]): weaker non-time-dependent inactivators

Molecule: oestrone-3-S-sulphamate
- manner of inhibition of the E1-STS enzyme (E1-STS [2]): weaker non-time-dependent inactivators
